Measured values from PMC7034070, “Synthesis, anti-inflammatory, cytotoxic, and COX-1/2 inhibitory activities of cyclic imides bearing 3-benzenesulfonamide, oxime, and β-phenylalanine scaffolds: a molecular docking study” (Journal of Enzyme Inhibition and Medicinal Chemistry, 2020).
Several values for one entry are separate records, joined by “and”; a condition that tells them apart may be missing. Equal entries are not always repeated.

Columns and labels:
[1] = test system: NCI-H522 (NSC Lung Cancer); test: NCI 59 cell line panel, single dose; assay type: cell-based; conditions: NCI-H522, one dose 10.0 μM
COX-2 = biological target: T1, COX-2 (Ovis aries, UniProt P79208); test: colorimetric COX (ovine) inhibitor screening assay kit; assay type: biochemical; conditions: for SI, selectivity index (COX-1 IC50/COX-2 IC50): ovine COX-1/COX-2; for IC50: ovine COX-2, mean of two determinations
T1 construct: purchased Cayman Chemicals Inc., Ann Arbour, MI
T1 sequence (P79208 17-603): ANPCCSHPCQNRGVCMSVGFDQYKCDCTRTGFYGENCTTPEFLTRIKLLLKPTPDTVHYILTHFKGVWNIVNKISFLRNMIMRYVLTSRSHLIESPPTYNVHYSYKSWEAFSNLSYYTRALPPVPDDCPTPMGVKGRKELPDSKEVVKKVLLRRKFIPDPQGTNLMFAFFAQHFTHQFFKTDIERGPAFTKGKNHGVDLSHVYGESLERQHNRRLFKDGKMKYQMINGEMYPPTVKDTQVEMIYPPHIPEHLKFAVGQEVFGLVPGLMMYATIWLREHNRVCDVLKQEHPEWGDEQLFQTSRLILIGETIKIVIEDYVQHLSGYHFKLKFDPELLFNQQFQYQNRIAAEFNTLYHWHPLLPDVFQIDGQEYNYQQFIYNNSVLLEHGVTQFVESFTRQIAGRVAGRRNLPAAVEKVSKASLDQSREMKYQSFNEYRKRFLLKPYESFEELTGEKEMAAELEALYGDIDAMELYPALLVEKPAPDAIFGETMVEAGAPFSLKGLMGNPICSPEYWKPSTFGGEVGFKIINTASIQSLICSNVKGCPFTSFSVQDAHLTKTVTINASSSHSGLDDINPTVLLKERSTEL
Excerpt: (§1) To determine the relative ability of the test compounds and reference drugs to inhibit COX-1/COX-2 isozymes, we used the colorimetric COX (ovine) inhibitor screening assay kit (Cayman Chemicals Inc., Ann Arbour, MI), according to the manufacturer’s instructions[3]^,[10]^,[11]^,[20].

COX-1 = biological target: T2, COX-1 (Ovis aries, UniProt P05979); test: as above; assay type: biochemical; conditions: ovine COX-1, mean of two determinations
T2 construct: purchased Cayman Chemicals Inc., Ann Arbour, MI
T2 sequence (P05979 25-600): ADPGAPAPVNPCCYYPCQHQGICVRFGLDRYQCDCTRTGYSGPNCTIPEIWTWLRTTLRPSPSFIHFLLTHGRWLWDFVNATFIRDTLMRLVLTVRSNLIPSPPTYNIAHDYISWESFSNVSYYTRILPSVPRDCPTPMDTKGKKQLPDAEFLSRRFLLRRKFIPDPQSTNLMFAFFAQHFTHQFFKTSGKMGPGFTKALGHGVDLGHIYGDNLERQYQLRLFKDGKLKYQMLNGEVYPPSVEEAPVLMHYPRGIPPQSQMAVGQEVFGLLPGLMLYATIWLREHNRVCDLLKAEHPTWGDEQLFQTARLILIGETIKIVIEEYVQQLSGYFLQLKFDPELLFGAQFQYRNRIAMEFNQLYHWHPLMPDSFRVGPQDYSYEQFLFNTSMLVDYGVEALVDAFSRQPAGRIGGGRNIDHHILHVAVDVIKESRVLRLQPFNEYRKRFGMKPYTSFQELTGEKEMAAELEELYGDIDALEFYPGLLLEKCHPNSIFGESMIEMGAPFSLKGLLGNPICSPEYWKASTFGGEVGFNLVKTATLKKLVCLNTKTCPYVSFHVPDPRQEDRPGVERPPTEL
Excerpt: as §1

[2] = test system: carrageenan induced rat paw oedema; test: rat carrageenan-induced foot paw oedema model; assay type: in vivo; conditions: for Mean % increase in paw weight ± SEM / % Inhibition of paw oedema from control group: 2 h after carrageenan; for Mean % increase in paw weight ± SEM: control group 165.6 ± 1.6; for % Inhibition of paw oedema from control group: single dose screen (Table 1); for ED50: from three graded doses (45, 65, 80 mg/kg)
Description: Anti-inflammatory assessment of the newly synthesised compounds was carried out using an in vivo rat carrageenan-induced foot paw oedema model, as reported previously[16]^,[17].

SNB-75 (CNS Cancer) = test: NCI 59 cell line panel, single dose; assay type: cell-based; conditions: SNB-75, one dose 10.0 μM
59 cancer cell lines = test: full NCI 59 cell line panel assay, single dose; assay type: cell-based; conditions: one dose 10.0 μM, 59 cell lines
UO-31 (Renal Cancer) = test: NCI 59 cell line panel, single dose; assay type: cell-based; conditions: UO-31, one dose 10.0 μM
HOP-92 (NSC Lung Cancer) = test: NCI 59 cell line panel, single dose; assay type: cell-based; conditions: HOP-92, one dose 10.0 μM
mice = test: Ulcerogenicity measurement; assay type: in vivo; conditions: for Average number of ulcers / Mean sum of lengths of elongated ulcer: mice; for Mean sum of lengths of elongated ulcer: ± SEM; for level of ulcerogenic activity (in words): relative to diclofenac and celecoxib
Description: Ulcerogenicity was evaluated according to a previously reported method[6]^a,[17]^,[18]. The number and total length of the ulcers for each animal were measured and their averages were calculated and used as the ulcer indices.

## NS(=O)(=O)c1cccc(N2C(=O)C3CC=CCC3C2=O)c1 (centres unmarked) [Compound 3, 3-(1,3-Dioxo-1,3,3a,4,7,7a-hexahydro-2H-isoindol-2-yl)benzenesulfonamide]
[1]
  GI%: 12%
COX-2
  SI, selectivity index (COX-1 IC50/COX-2 IC50): >250.0
  IC50: 0.2 µM
COX-1
  IC50: > 50 µM
[2]
  Mean % increase in paw weight ± SEM: 42.4 ± 0.2%
  % Inhibition of paw oedema from control group: 77.0% and 77.0 ± 0.6%
SNB-75 (CNS Cancer)
  GI%: 12%
59 cancer cell lines
  PCE (positive cytotoxic effect: cell lines with growth inhibition >10% / total number of cell lines): 3/59
other
  melting point: 159 to 161 °C
UO-31 (Renal Cancer)
  GI%: 16%

## CC(=NO)c1ccc(N2C(=O)CCC2=O)cc1 [Compound 11, 1-(4-(1-(Hydroxyimino)ethyl)phenyl)pyrrolidine-2,5-dione]
COX-2
  SI, selectivity index (COX-1 IC50/COX-2 IC50): >227.3
  IC50: 0.22 µM
COX-1
  IC50: > 50 µM
[2]
  Mean % increase in paw weight ± SEM: 45.0 ± 0.3%
  % Inhibition of paw oedema from control group: 75.6% and 75.6 ± 0.6%
other
  melting point: 184 to 186 °C

## O=C(O)CC(c1ccccc1)N1C(=O)c2ccc([N+](=O)[O-])cc2C1=O (centres unmarked) [Compound 28, 3-(5-Nitro-1,3-dioxoisoindolin-2-yl)-3-phenylpropanoic acid]
COX-2
  SI, selectivity index (COX-1 IC50/COX-2 IC50): 0.61
  IC50: 30 µM
COX-1
  IC50: 18.2 µM
[2]
  Mean % increase in paw weight ± SEM: 100.9 ± 0.8%
  % Inhibition of paw oedema from control group: 42.5% and 42.5 ± 0.2%
other
  melting point: 191 to 193 °C

## NS(=O)(=O)c1cccc(N2C(=O)c3c(Cl)c(Cl)c(Cl)c(Cl)c3C2=O)c1 [Compound 8]
[2]
  Mean % increase in paw weight ± SEM: 134.0 ± 0.9%
  % Inhibition of paw oedema from control group: 26.9% and 26.9 ± 0.5%
SNB-75 (CNS Cancer)
  GI%: 13%
59 cancer cell lines
  PCE (positive cytotoxic effect: cell lines with growth inhibition >10% / total number of cell lines): 3/59
HOP-92 (NSC Lung Cancer)
  GI%: 11%
UO-31 (Renal Cancer)
  GI%: 17%

## O=C(O)CC(c1ccccc1)N1C(=O)c2cccc3cccc(c23)C1=O (centres unmarked) [Compound 29, 3-(1,3-Dioxo-1H-benzo[de]isoquinolin-2(3H)-yl)-3-phenylpropanoic acid]
[2]
  Mean % increase in paw weight ± SEM: 130.8 ± 0.7%
  % Inhibition of paw oedema from control group: 27.0% and 27.0 ± 0.1%
other
  melting point: 151 to 153 °C

## CC(C)(C)c1ccc2c(c1)C(=O)N(c1cccc(S(N)(=O)=O)c1)C2=O [Compound 6, 3-(5-(tert-Butyl)-1,3-dioxoisoindolin-2-yl)benzenesulfonamide]
COX-2
  SI, selectivity index (COX-1 IC50/COX-2 IC50): >12.5
  IC50: 4 µM
COX-1
  IC50: > 50 µM
[2]
  Mean % increase in paw weight ± SEM: 106.1 ± 0.9%
  % Inhibition of paw oedema from control group: 40.9% and 40.9 ± 0.6%
SNB-75 (CNS Cancer)
  GI%: 12%
59 cancer cell lines
  PCE (positive cytotoxic effect: cell lines with growth inhibition >10% / total number of cell lines): 2/59
other
  melting point: 151 to 153 °C
HOP-92 (NSC Lung Cancer)
  GI%: 19%

## CC(=NO)c1ccc(N2C(=O)c3ccc([N+](=O)[O-])cc3C2=O)cc1 [Compound 18, 2-(4-(1-(Hydroxyimino)ethyl)phenyl)-5-nitroisoindoline-1,3-dione]
COX-2
  SI, selectivity index (COX-1 IC50/COX-2 IC50): >333.3
  IC50: 0.15 µM
COX-1
  IC50: > 50 µM
[2]
  Mean % increase in paw weight ± SEM: 31.6 ± 0.4%
  % Inhibition of paw oedema from control group: 82.9% and 82.9 ± 0.8%
  ED50: 35.4 mg/kg
[2]; dose 45 mg/kg
  Percentage inhibition of paw oedema from control group: 70.1%
[2]; dose 65 mg/kg
  Percentage inhibition of paw oedema from control group: 82.9%
[2]; dose 80 mg/kg
  Percentage inhibition of paw oedema from control group: 91.9%
other
  melting point: 269 to 271 °C
mice
  Average number of ulcers: 2
  Mean sum of lengths of elongated ulcer: 0.9 ± 0.08 mm
  level of ulcerogenic activity (in words): very low levels of ulcerogenic activity

## O=C(O)CC(c1ccccc1)N1C(=O)c2cc(Cl)c(Cl)cc2C1=O (centres unmarked) [Compound 26, 3-(5,6-Dichloro-1,3-dioxoisoindolin-2-yl)-3-phenylpropanoic acid]
[2]
  Mean % increase in paw weight ± SEM: 136.3 ± 0.8%
  % Inhibition of paw oedema from control group: 24.4 ± 0.3%
other
  melting point: 205 to 207 °C

## O=C(O)CC(c1ccccc1)N1C(=O)c2c(Cl)c(Cl)c(Cl)c(Cl)c2C1=O (centres unmarked) [Compound 27, 3-Phenyl-3-(4,5,6,7-tetrachloro-1,3-dioxoisoindolin-2-yl)propanoic acid]
[2]
  Mean % increase in paw weight ± SEM: 141.6 ± 1.0%
  % Inhibition of paw oedema from control group: 21.2 ± 0.9%
other
  melting point: 280 to 282 °C

## NS(=O)(=O)c1cccc(N2C(=O)c3cccc4cccc(c34)C2=O)c1 [Compound 10, 3-(1,3-Dioxo-1H-benzo[de]isoquinolin-2(3H)-yl)benzenesulfonamide]
COX-2
  SI, selectivity index (COX-1 IC50/COX-2 IC50): >14.3
  IC50: 3.5 µM
COX-1
  IC50: > 50 µM
[2]
  Mean % increase in paw weight ± SEM: 93.7 ± 0.4%
  % Inhibition of paw oedema from control group: 49.2% and 49.2 ± 0.6%
other
  melting point: 241 to 243 °C

## NS(=O)(=O)c1cccc(N2C(=O)c3cc(Cl)c(Cl)cc3C2=O)c1 [Compound 7, 3-(5,6-Dichloro-1,3-dioxoisoindolin-2-yl)benzenesulfonamide]
[2]
  Mean % increase in paw weight ± SEM: 129.7 ± 0.9%
  % Inhibition of paw oedema from control group: 29.7% and 29.7 ± 0.2%
other
  melting point: 256 to 258 °C

## CC(C)(C)c1ccc2c(c1)C(=O)N(C(CC(=O)O)c1ccccc1)C2=O (centres unmarked) [Compound 25, 3-(5-(tert-Butyl)-1,3-dioxoisoindolin-2-yl)-3-phenylpropanoic acid]
[2]
  Mean % increase in paw weight ± SEM: 129.0 ± 1.1%
  % Inhibition of paw oedema from control group: 29.6 ± 0.7%
other
  melting point: 119 to 121 °C

## C/C(=N/O)c1ccc(N2C(=O)c3ccccc3C2=O)cc1 [Compound 13]
COX-2
  SI, selectivity index (COX-1 IC50/COX-2 IC50): >312.5
  IC50: 0.16 µM
COX-1
  IC50: > 50 µM
[2]
  Mean % increase in paw weight ± SEM: 36.2 ± 0.2%
  % Inhibition of paw oedema from control group: 80.4% and 80.4 ± 0.7%
  ED50: 37.5 mg/kg
[2]; dose 45 mg/kg
  Percentage inhibition of paw oedema from control group: 67.9%
[2]; dose 65 mg/kg
  Percentage inhibition of paw oedema from control group: 80.4%
[2]; dose 80 mg/kg
  Percentage inhibition of paw oedema from control group: 91.1%
mice
  Average number of ulcers: 5
  Mean sum of lengths of elongated ulcer: 2.1 ± 0.23 mm
  level of ulcerogenic activity (in words): ulcerogenic level similar to celecoxib and less than that of diclofenac

## CC(=NO)c1ccc(N2C(=O)c3cccc4cccc(c34)C2=O)cc1 [Compound 19, 2-(4-(1-(Hydroxyimino)ethyl)phenyl)-1H-benzo[de]isoquinoline-1,3(2H)-dione]
COX-2
  SI, selectivity index (COX-1 IC50/COX-2 IC50): >178.6
  IC50: 0.28 µM
COX-1
  IC50: > 50 µM
[2]
  Mean % increase in paw weight ± SEM: 57.6 ± 0.5%
  % Inhibition of paw oedema from control group: 68.8% and 68.8 ± 0.4%
other
  melting point: > 300 °C

## O=C(O)CC(c1ccccc1)N1C(=O)CCC1=O (centres unmarked) [Compound 21, 3-(2,5-Dioxopyrrolidin-1-yl)-3-phenylpropanoic acid]
COX-2
  SI, selectivity index (COX-1 IC50/COX-2 IC50): 0.55
  IC50: 30.3 µM
COX-1
  IC50: 16.6 µM
[2]
  Mean % increase in paw weight ± SEM: 98.9 ± 0.6%
  % Inhibition of paw oedema from control group: 46.4% and 46.4 ± 0.3%
other
  melting point: 259 to 261 °C
